Consider twelve compounds from ChEMBL document CHEMBL5344423, “Alstoboonine, an Ulean-Type Indole Alkaloid from Alstonia boonei Leaves” (J Nat Prod, 2024).

One data set has as its system Trypanosoma cruzi. As to the kind of experiment: Antiprotozoal activity against Trypanosoma cruzi Tulahuen C4 amastigotes measured after 96 hrs by microplate reader analysis. The format is functional, organism-based. The following applies: Tulahuen C4, 96 h.
Another data set relates to Leishmania donovani. Kind of data set: Antiprotozoal activity against Leishmania donovani MHOM-ET-67/L82 amastigotes incubated for 72 hrs by microplate reader analysis. The format is functional, organism-based. The following applies: MHOM-ET-67/L82, 72 h.
Data set [1] in a line: Cytotoxicity against rat L6 cells incubated for 72 hrs by Resazurin-dye based assay. Type of data set: toxicity, cell-based. On the technique in general: Alamar Blue is a resazurin reagent that responds to reducing activity.
A further data set deals with Trypanosoma brucei. Kind of data set: Antiprotozoal activity against bloodstream form Trypanosoma brucei STIB 900 trypomastigotes […] by microplate reader analysis. The format is functional, organism-based.
The test system of another data set is Plasmodium falciparum. Kind of data set: Antiprotozoal activity against Plasmodium falciparum NF54 intraerythrocytic forms incubated for 48 hrs by 3H-hypoxanthine incorporation assay. The format is functional, organism-based.
Data set [2] is described as follows: Cytotoxicity against human MCF7 cells assessed as reduction in cell viability after 48 hrs by MTT assay. Type of data set: toxicity, cell-based. In general terms: Tetrazolium dyes change colour on reduction, which living cells bring about.
Data set [3] concerns Caenorhabditis elegans. As to the kind of experiment: Anthelmintic activity against Caenorhabditis elegans N2 Bristol assessed as lethality on young adult worms at 10 mM incubated for 48 hrs. Type of data set: functional, organism-based.
The test system of data set [4] is Caenorhabditis elegans. As to the kind of experiment: Anthelmintic activity against Caenorhabditis elegans N2 Bristol assessed as mortality at 40 mM relative to control.
Data set [5] has as its system Caenorhabditis elegans. As to the kind of experiment: Anthelmintic activity against Caenorhabditis elegans N2 Bristol assessed as lethality. Type of data set: functional.
For data set [6], the system named is Caenorhabditis elegans. As to the kind of experiment: Anthelmintic activity against Caenorhabditis elegans N2 Bristol assessed as mortality at 10 mM relative to control. The format is functional.

≈ marks a conversion by molar mass, not a printed value. Calls of active or inactive are those of the source. The calls are words filed in the database; no cut-off is given here.

As for `O=C(Cn1ccnc1[N+](=O)[O-])NCc1ccccc1` [BENZNIDAZOLE], the concentration for half-maximal inhibition (IC50) (usually the concentration at which inhibition is half-maximal) in the data set with Trypanosoma cruzi was found to be 0.69 µg/mL (≈ 2.65 µM).

With `CCCCCCCCCCCCCCCCOP(=O)([O-])OCC[N+](C)(C)C` [MILTEFOSINE], the IC50 in the data set on Leishmania donovani is 0.26 µg/mL (≈ 0.638 µM).

In data set [1], `C=CC12OC[C@@]3(C(=O)OC)c4[nH]c5ccccc5c4C1NCCC23O` displayed an IC50 at 72 h of 50 µg/mL (≈ 147 µM). Moreover, the IC50 with Trypanosoma brucei was 20 µg/mL (≈ 58.8 µM); with Leishmania donovani it was 75 µg/mL (≈ 220 µM); in the data set with Trypanosoma cruzi it was more than 100 µg/mL; with Plasmodium falciparum it was 2.4 µg/mL (≈ 7.05 µM). In addition, the half-maximal inhibitory concentration (IC50) at 48 h in data set [2] is more than 100 µM.

As for `COC(=O)/C1=C/OC2=Nc3c(OC)cccc3[C@@]23CCN2C[C@@H](C(C)=O)[C@@H]1CC23`, the IC50 at 48 h in data set [2] was more than 100 µM.

On to `C=C[C@@]12CN3CC[C@]1(O)[C@@](C(=O)OC)(CO2)c1[nH]c2ccccc2c1C3`, for which the result in the data set with Caenorhabditis elegans [3] was inactive. Further, the IC50 at 48 h in data set [2] worked out at 26 µM.

As to `c1ccc([C@H]2CN3CCSC3=N2)cc1` [LEVAMISOLE], the mortality (as a rule, the share of the test organisms that died) at 40000 µM in the data set with Caenorhabditis elegans [4] was found to be 71%.

Take `COC(=O)[C@@]1(c2cc3ccccc3[nH]2)COCC=C2CN(C)CC[C@@H]21` [6,7-SECO-ANGUSTILOBINE B]: the IC50 at 48 h in data set [2] is more than 100 µM.

Turning to `COC(=O)C1=C2Nc3c(OC)cccc3[C@@]23CCN2C[C@@H](C(C)=O)[C@@H]1C[C@H]23`, the IC50 at 48 h in data set [2] was more than 100 µM.

In the case of `COC(=O)C1=C2Nc3c(OC)cccc3[C@@]23CCN2C[C@@H]([C@H](C)O)[C@@H]1C[C@H]23`, the outcome in the data set on Caenorhabditis elegans [3] was inactive. In data set [2], the IC50 at 48 h is more than 100 µM.

`C/C=C1/CN2CC[C@@]34C(=Nc5c(OC)cccc53)O/C=C(/C(=O)OC)[C@H]1CC24`: the outcome in the data set on Caenorhabditis elegans [3] was inactive. Also, in data set [2], the IC50 at 48 h is more than 100 µM.

In the case of `COC(=O)/C1=C/OC2=Nc3c(OC)cccc3[C@@]23CCN2C[C@@H]([C@H](C)O)[C@@H]1CC23`, the LC50 (as a rule, the concentration lethal to half of the exposed cells or organisms) in the data set on Caenorhabditis elegans [5] turned out to be 400 µM. Besides, in the data set with Caenorhabditis elegans [6], the mortality at 10000 µM is 100%. Moreover, the IC50 at 48 h in [2] is more than 100 µM.

`COC(=O)[C@@]1(c2cc3ccccc3[nH]2)COC[C@H]2O[C@]23CN(C)CC[C@@H]31`: the IC50 at 48 h in data set [2] is more than 100 µM.
